Test results published in patent US20220112204A1, “SUBSTITUTED DIHYDROPYRANOPYRIMIDINE COMPOUNDS AS KRAS INHIBITORS” (ACCUTAR BIOTECHNOLOGY INC., priority 2020, published 2022).
Read-outs that look alike come from different tables or passages of the source.

Legend:
NCI-H358 cells = assay: 3D cell growth assay (CellTiter-Glo), NCI-H358; assay type: cell-based; conditions: Homo sapiens, 144 h, NCI-H358, KRAS G12C, 6 days, read-out: 3D growth inhibition GI50
Experimental: (§1) MIA PaCa-2 (ATCC), NCI-H358 (ATCC), NCI-H23 (ATCC), SW837 and A549 (ATCC) cells were plated in round bottom 96-well spheroid microplates (Corning, 4520) at 3000 cells/well in 90 ul of RPMI growth medium containing 10% FBS and 1% Penicillin Streptomycin. Cells were incubated at 37° C. overnight. The following day, the test compound was administered to the cells by using 10× compound stock solution prepared in growth medium at various concentrations. After administration of the compound, cells were then incubated at 37° C. for 6 days. Before CellTiter-Glo assay, the plates were equilibrated at room temperature for approximately 10 minutes. 100 ul of CellTiter-Glo® Reagent (Promega, G7573) was added to each well. The plates were then incubated at room temperature for 10 minutes and luminescence was recorded by EnSpire plate reader (PerkinElmer). Table 6 illustrates growth inhibition (G150) by exemplary compounds 1-10 of the present disclosure in a MIA PaCa-2 cell line 6 days after administration in 3D cell culture. A: >0.1 nM and <1 nM; B: >=1 nM and <10 nM; C: >=10 nM and <100 nM; D: >100 nM.

KRAS-G12C mutant [1] = molecular target: T1, KRAS-G12C mutant (Homo sapiens, UniProt P01116, G12C); assay: Gel shift assay (SDS-PAGE) for covalent modification of KRAS G12C; assay type: binding; conditions: 0.5 μM compound, 1 μM GDP-bound KRAS G12C, 25° C., 5 minutes, shift indicative of covalent cysteine conjugation
Experimental: 0.5 μM compounds were incubated with 1 μM GDP-bound untagged KRAS (G12C or wild type) proteins at 25° C. for 5 minutes in 40 μl reaction buffer (50 mM Tris, pH 7.5, 100 mM NaCl, 1 mM MgCl2, 1 mM DTT). The reactions were quenched with 10 μI SDS-PAGE sample loading buffer (250 mM Tris-HCl, pH 6.8, 10% SDS, 0.5% bromophenol blue, 50% glycerol and 50 mM DTT) and then analyzed via SDS-PAGE using 4%-20% gradient polyacrylamide gel followed by Coomassie blue stain.
FIG. 1 illustrates mobility change of KRAS-G12C mutant or wild type proteins on SDS-PAGE after 5 minutes of coincubation at 25° C. with exemplary compounds of the present disclosure, indicative of covalent cysteine conjugation.
Table 3 summarizes molecular weight shift of KRAS-G12C mutant on SDS-PAGE after 5 mins of coincubation at 25° C. with exemplary compounds of the present disclosure, indicative of covalent cysteine conjugation.

SW837 cells = assay: 3D cell growth assay (CellTiter-Glo), SW837; assay type: cell-based; conditions: Homo sapiens, 144 h, SW837, KRAS G12C, 6 days, read-out: 3D growth inhibition GI50
Experimental: as §1

[2] = system: phospho-ERK1/2 (Thr202/Tyr204) in MIA PaCa-2 cell line; assay: pERK and ERK Western blot analysis, MIA PaCa-2; assay type: cell-based; conditions: Homo sapiens
Experimental: (§2) MIA PaCa-2 (ATCC), NCI-H358 (ATCC), NCI-H23 (ATCC), SW837 and A549 (ATCC) cells were plated in 24-well plates at 2×10^5cells/well in RPMI growth medium containing 10% FBS and 1× Penicillin Streptomycin. They were then incubated at 37° C. overnight. The following day, the test compound was administered to the cells by using 1000× compound stock solution prepared in DMSO at various concentrations. After administration of the compound, the cells were then incubated at 37° C. for 4 hours. Upon completion, the cells were washed with PBS and protein was collected in Laemmli sample buffer (1×; VWR International). Proteins in cell lysate were separated by SDS-PAGE and transferred to Odyssey nitrocellulose membranes (Licor) with iblot® dry blotting transfer system (ThermoFisher). Nonspecific binding was blocked by incubating membranes with Intercept Blocking Buffer (Licor) for 1 hour at room temperature with gentle shaking. The membranes were then incubated overnight at 4° C. with primary antibodies rabbit anti-phospho p44/42 MAPK (Erk1/2) (1:2,000, Cell Signaling, 4370) and mouse anti-p44/42 MAPK (Erk1/2) (1:1,000, Cell Signaling, 4696) diluted in Intercept Blocking Buffer containing 0.1% Tween 20. After washing 3 times with TBS-T, the membranes were incubated with IRDye® 800CW goat anti-rabbit IgG (1:20,000, Licor) or IRDye® 680CW goat anti-mouse IgG (1:20,000, Licor) for 1 hour. After TBS-T washes, membranes were rinsed in TBS and scanned on Odyssey® CLx Imaging System (Licor). The bands were quantified using Image Studio™ Software (Licor).

MIA PaCa-2 cell line = assay: 3D cell growth assay (CellTiter-Glo), MIA PaCa-2; assay type: cell-based; conditions: Homo sapiens, MIA PaCa-2, 144 h, 6 days, read-out: 3D growth inhibition GI50
Experimental: as §1

KRAS-G12C mutant [3] = molecular target: T1, KRAS-G12C mutant; assay: TR-FRET assay of SOS1-assisted KRAS GDP/GTP exchange; assay type: biochemical
Experimental: GDP form of 6*His tagged KRAS-G12C was diluted to 40 nM and incubated with 8 nM LanthaScreen™ Elite Terbium-anti-HIS Antibody (Thermo, catalog number PV5863) in reaction buffer containing 20 mM Tris, pH 7.5, 100 mM NaCl, 1 mM DTT, 0.1% Tween20, 0.05% BSA, 2% DMSO, 1 mM MgCl2. After 1 hour-incubation at 4° C., proteins were placed in 384 well plate (PerkinElmer, PROXIPLATE-384 PLUS). Then compounds with different concentrations were added to the proteins. BODIPY labeled GTP (Thermo, catalog number G12411) and SOS-1 (or reaction buffer as control) were then added to reactions at 200 nM and 1 μM to trigger the exchange of GDP to BODIPY-GTP. TR-FRET emission signals were determined at 520 nm and 620 nm on a Envision® Multilabel Plate Reader (PerkinElmer) using a 337 nm laser as light source. All data were analyzed and plotted using Graph Pad Prism software (version 8.0.1). Raw TR-FRET data were converted to percentage of inhibition (relative to DMSO) using the following equations: […]
b) For a given test compound concentration X:
Signal (X)=Emission ratio (SOS-1 & GTP)—Emission ratio (buffer & GTP)
c) Percentage of inhibition at concentration X=[1−Signal(X)/Signal (DMSO)]*100%
The […] values were determined by nonlinear regression of plots of [inhibitor] vs. percentage of inhibition with variable slope. Table 4 summarizes inhibition of SOS1-assisted GDP/GTP exchanging activity of KRAS-G12C mutant with exemplary compounds of the present disclosure.

A549 cells = assay: 3D cell growth assay (CellTiter-Glo), A549; assay type: cell-based; conditions: Homo sapiens, 144 h, A549, KRAS G12S, 6 days, read-out: 3D growth inhibition GI50
Experimental: as §1

NCI-H23 cells = assay: 3D cell growth assay (CellTiter-Glo), NCI-H23; assay type: cell-based; conditions: Homo sapiens, 144 h, NCI-H23, KRAS G12C, 6 days, read-out: 3D growth inhibition GI50
Experimental: as §1

[4] = system: phospho-ERK1/2 (Thr202/Tyr204) in NCI-H23 cells; assay: pERK and ERK Western blot analysis, NCI-H23; assay type: cell-based; conditions: Homo sapiens; NCI-H23, KRAS G12C, 4 hours
Experimental: as §2, with “After washing 3 times with TBS-T, the membranes were incubated with IRDye® 800CW goat anti-rabbit IgG (1:20,000, Licor) or IRDye® 680CW goat anti-mouse IgG (1:20,000, Licor) for 1 hour. After TBS-T washes, membranes were rinsed in TBS and scanned on Odyssey® CLx Imaging System (Licor).” left out

[5] = system: phospho-ERK1/2 (Thr202/Tyr204) in A549 cells; assay: pERK and ERK Western blot analysis, A549; assay type: cell-based; conditions: Homo sapiens; A549, KRAS G12S, 4 hours
Experimental: as §2, with “After washing 3 times with TBS-T, the membranes were incubated with IRDye® 800CW goat anti-rabbit IgG (1:20,000, Licor) or IRDye® 680CW goat anti-mouse IgG (1:20,000, Licor) for 1 hour. After TBS-T washes, membranes were rinsed in TBS and scanned on Odyssey® CLx Imaging System (Licor).” left out

[6] = system: phospho-ERK1/2 (Thr202/Tyr204) in SW837 cells; assay: pERK and ERK Western blot analysis, SW837; assay type: cell-based; conditions: Homo sapiens; SW837, KRAS G12C, 4 hours
Experimental: as §2, with “After washing 3 times with TBS-T, the membranes were incubated with IRDye® 800CW goat anti-rabbit IgG (1:20,000, Licor) or IRDye® 680CW goat anti-mouse IgG (1:20,000, Licor) for 1 hour. After TBS-T washes, membranes were rinsed in TBS and scanned on Odyssey® CLx Imaging System (Licor).” left out

[7] = system: phospho-ERK1/2 (Thr202/Tyr204) in NCI-H358 cells; assay: pERK and ERK Western blot analysis, NCI-H358; assay type: cell-based; conditions: Homo sapiens; NCI-H358, KRAS G12C, 4 hours
Experimental: as §2, with “After washing 3 times with TBS-T, the membranes were incubated with IRDye® 800CW goat anti-rabbit IgG (1:20,000, Licor) or IRDye® 680CW goat anti-mouse IgG (1:20,000, Licor) for 1 hour. After TBS-T washes, membranes were rinsed in TBS and scanned on Odyssey® CLx Imaging System (Licor).” left out

[8] = MIA PaCa-2, MiaPaCa2, KRAS G12C, 4 hours, read-out: pERK IC50
[9] = MIA PaCa-2 cell line, 4 hours after incubation, read-out: 2D pERK IC50
[10] = MIA PaCa-2 cell line, 3D cell culture

GI50 (NCI-H358 cells) [nM]	KRAS-G12C molecular weight shift (KRAS-G12C mutant [1])	GI50 (SW837 cells) [nM]	IC50 [2, 8] [nM]	IC50 [2, 9] [nM]	GI50 (MIA PaCa-2 cell line; [10]) [nM]	GI50 (MIA PaCa-2 cell line; MiaPaCa2, KRAS G12C, 3D) [nM]	IC50 (KRAS-G12C mutant [3]) [nM]	GI50 (A549 cells) [nM]	GI50 (NCI-H23 cells) [nM]	IC50 [4] [nM]	IC50 [5] [nM]	IC50 [6] [nM]	IC50 [7] [nM]	Compound
	Yes			1 to 10	0.1 to 1		40							C=C(F)C(=O)N1CCN(c2nc(OC[C@@]34CCCN3C[C@H](F)C4)nc3c2COC(c2cccc4cccc(Cl)c24)C3)C[C@@H]1CC#N (stereo partly drawn) [Compound 62, 2-((2S)-4-(7-(8-chloronaphthalen-1-yl)-2-(((2R,7aS)-2-fluorotetrahydro-1H-pyrrolizin-7a(5H)-yl)methoxy)-7,8-dihydro-5H-pyrano[4,3-d]pyrimidin-4-yl)-1-(2-fluoroacryloyl)piperazin-2-yl)acetonitrile]
0.2	Yes	4.1	2.4	1 to 10	0.1 to 1	0.3	20	> 300	2.1	1.7	> 30000	1.2	2.5	C=C(F)C(=O)N1CCN(c2nc(OC[C@@]34CCCN3C[C@H](F)C4)nc3c2CO[C@H](c2cccc4cccc(Cl)c24)C3)C[C@@H]1CC#N [Compound 64, 2-((S)-4-((S)-7-(8-chloronaphthalen-1-yl)-2-(((2R,7aS)-2-fluorotetrahydro-1H-pyrrolizin-7a(5H)-yl)methoxy)-7,8-dihydro-5H-pyrano[4,3-d]pyrimidin-4-yl)-1-(2-fluoroacryloyl)piperazin-2-yl)acetonitrile]
	Yes			10 to 100	1 to 10		30							C=C(F)C(=O)N1CCN(c2nc(OCC34CCCN3CCC4)nc3c2[C@H](C)O[C@H](c2cccc4cccc(C)c24)C3)C[C@@H]1CC#N [Compound 66, 2-((S)-1-(2-fluoroacryloyl)-4-((5S,7S)-5-methyl-7-(8-methylnaphthalen-1-yl)-2-((tetrahydro-1H-pyrrolizin-7a(5H)-yl)methoxy)-7,8-dihydro-5H-pyrano[4,3-d]pyrimidin-4-yl)piperazin-2-yl)acetonitrile]
	Yes			10 to 100	1 to 10		20							C=C(F)C(=O)N1CCN(c2nc(OCC34CCCN3CCC4)nc3c2CO[C@H](c2cccc4c2CCCC4)C3)C[C@@H]1CC#N [Compound 69, 2-((S)-1-(2-fluoroacryloyl)-4-((S)-2-((tetrahydro-1H-pyrrolizin-7a(5H)-yl)methoxy)-7-(5,6,7,8-tetrahydronaphthalen-1-yl)-7,8-dihydro-5H-pyrano[4,3-d]pyrimidin-4-yl)piperazin-2-yl)acetonitrile]

Second part, the compound before the results:

Compound	GI50 (NCI-H358 cells) [nM]	KRAS-G12C molecular weight shift (KRAS-G12C mutant [1])	GI50 (SW837 cells) [nM]	IC50 [2, 8] [nM]	IC50 [2, 9] [nM]	GI50 (MIA PaCa-2 cell line; [10]) [nM]	GI50 (MIA PaCa-2 cell line; MiaPaCa2, KRAS G12C, 3D) [nM]	IC50 (KRAS-G12C mutant [3]) [nM]	GI50 (A549 cells) [nM]	GI50 (NCI-H23 cells) [nM]	IC50 [4] [nM]	IC50 [5] [nM]	IC50 [6] [nM]	IC50 [7] [nM]
C=C(F)C(=O)N1CCN(c2nc(OCC34CCCN3CCC4)nc3c2CO[C@H](c2cccc4cccc(Cl)c24)C3)C[C@@H]1CC#N (single isomer, unassigned) [Compound 55]	0.7	Yes	8.6	10.1	1 to 10	0.1 to 1	0.8	22	> 300	8.4	6.4	> 30000	5.9	12
C=C(F)C(=O)N1CCN(c2nc(OCC34CCCN3CCC4)nc3c2C(C)OC(c2cccc4cccc(Cl)c24)C3)C[C@@H]1CC#N (stereo partly drawn) [Compound 59, 2-((2S)-4-(7-(8-chloronaphthalen-1-yl)-5-methyl-2-((tetrahydro-1H-pyrrolizin-7a(5H)-yl)methoxy)-7,8-dihydro-5H-pyrano[4,3-d]pyrimidin-4-yl)-1-(2-fluoroacryloyl)piperazin-2-yl)acetonitrile]		Yes			10 to 100	1 to 10		60						
C=C(F)C(=O)N1CCN(c2nc(OCC34CCCN3CCC4)nc3c2[C@H](C)O[C@H](c2cccc4c2CCCC4)C3)C[C@@H]1CC#N [Compound 61, 2-((S)-1-(2-fluoroacryloyl)-4-((5S,7S)-5-methyl-2-((tetrahydro-1H-pyrrolizin-7a(5H)-yl)methoxy)-7-(5,6,7,8-tetrahydronaphthalen-1-yl)-7,8-dihydro-5H-pyrano[4,3-d]pyrimidin-4-yl)piperazin-2-yl)acetonitrile]		Yes			10 to 100	10 to 100		78						
